Results: US20130302362A1, “Immunomodulatory Compositions, Methods and Systems Comprising Immunogenic Fragments of ApoB-100” (CEDARS-SINAI MEDICAL CENTER, priority 2010, published 2013)

Experiments:
[1] = system: atherosclerosis; conditions: immunization with peptide or peptide combination; WO 02/080954 Table B; cited from earlier work
[2] = system: Male apoE (−/−) mice; assay: p210 immunization, aortic atherosclerosis (en face Oil Red O; aortic sinus immunohistochemistry); assay type: in vivo
From the text: Selection of peptides and their preparation for immunization The establishment and screening of human apoB-100 peptides has been reported (8). Based on Applicants pilot experiments and prior reports, see references (9),(10) Applicants selected peptide 210 (p210, KTTKQ SFDLS VKAQY KKNKH—SEQ ID NO: 210) as a candidate immunogen. Native p210 peptide (Euro-Diagnostica AB, Sweden) was conjugated to cationic bovine serum albumin (cBSA) as carrier using a method described previously see references (3), (4) Alum was used as adjuvant and mixed with peptide/cBSA conjugate with 1:1 ratio in volume. Peptide conjugation and mixing with alum were prepared fresh prior to each immunization.
Male apoE (−/−) mice (Jackson Laboratories) were housed in an animal facility accredited by the American Association of Accreditation of Laboratory Animal Care and kept on a 12-hour day/night cycle with unrestricted access to water and food. The Institutional Animal Care and Use Committee of Cedars-Sinai Medical Center approved the experimental protocols. […] Mice, maintained on normal chow diet, received subcutaneous primary immunization in the dorsal area between scapulas at 6-7 weeks of age, followed by a booster at 9 and 12 weeks of age. One week after last booster, diet was switched to high cholesterol chow (TD 88137, Harlan-Teklad) and continued until euthanasia at the age of 25 weeks. Separate groups of mice receiving PBS or cBSA/alum at the same immunization time-points served as control. Some mice were sacrificed at 8 or 13 weeks of age to assess immune response against p210.
At euthanasia the hearts were harvested and embedded in OCT compound (Tissue-Tek) for cryo-section. Whole aortas were cleaned, processed and stained with Oil Red 0 to assess the extent of atherosclerosis en face with computer-assisted histomorphometry, see references (3),(4).
The sections from aortic sinus were stained with MOMA-2 (Serotec), or CD11c (eBioscience) antibody to identify macrophages or dendritic cells immunohistochemically using standard protocol. Oil-Red-O stain for plaque size was done using standard protocol. […]

[3] = system: Male apoE KO mice; assay: Blood pressure and heart rate in AngII-infused immunized mice; assay type: in vivo
Procedure: Saline was delivered to the control group.
Angiotensin II infusion via implanted osmotic pump was started at 10 weeks of age. Mice were euthanized at 14 weeks of age. Blood pressure was measured throughout the duration of experiment.

[4] = system: CD11c(+) dendritic cells; assay: Flow cytometric analysis of dendritic cells at immunization site and lymph nodes; assay type: in vivo, mice; conditions: 1 week after the third immunization; compared with cBSA/alum group
Procedure: (§1) Flow cytometric analysis was performed using standard protocols with antibodies listed in Table 1 below and a FACScan (Becton Dickinson) or a CyAn ADP analyzer (Beckman Coulter). For intracellular cytokine staining, Brefeldin A (3 μg/ml) was added to the cultured cells for 2 hours before cells subject to staining procedure. Cell membranes were permeabilized for staining intracellular molecules.
Since DCs are the major cell type upstream to both cellular and humoral immune responses, Applicants determined if these cells were affected by the immunization strategy. […]

[5] = system: naïve male apoE (−/−) recipient mice; assay: Adoptive transfer of lymphocytes from immunized donors, aortic atherosclerosis in recipients; assay type: in vivo; conditions: 2×10^7 donor B-cells/mouse
From the text: Male apoE (−/−) mice on regular chow received subcutaneous immunization as described in previous paragraph and were sacrificed at 13 weeks of age as donors. Splenocytes from the same treatment group were pooled before cell isolation. Donor CD8(+) T-cells, CD4(+)CD25(+) T-cells or B-cells were isolated using Dynabeads FlowComp (Invitrogen) according to the manufacturer's protocols. CD4(+) T-cells were negatively selected from the splenocytes followed by positive selection of CD4(+)CD25(+) cells. B cells were negatively isolated whereas CD8(+) T-cells were positively isolated first and released from beads. The purity of pooled CD8(+) T-cells, CD4(+)CD25(+) T-cells and B-cells was 90%, 80% and 70%, respectively. The isolated CD8(+) T-cells (1×10^6 cells/mouse), CD4(+)CD25(+) T-cells (1×10^5 or 3×10^5 cells/mouse) or B-cells (2×10^7 cells/mouse) were then adoptively transferred to naïve male apoE (−/−) recipient mice at 6-7 weeks of age via tail vein injection. In the published literatures of vascular biology, the number of adoptively transferred lymphocytes varied greatly. For B-cells transfer, the number of 2×10^7 cells/mouse was chosen based on two prior reports, see references (11),(12). For CD4(+)CD25(+) T-cells transfer, the number of cells transferred ranged from 5×10^4 cells/mouse to 1×10^6 cells/mouse in the published literature see references (13),(14),(15). […]

[6] = system: bone marrow derived DCs; assay: Cytolytic activity of CD8(+) T-cells from immunized mice against dendritic cells in vitro; assay type: cell-based
Procedure: (§2) The method for generating BMDC with GM-CSF was adapted from previous publication with modification see reference (19). Briefly, bone marrow cells from femurs and tibiae of male apoE−/− mice were plated into 10 cm culture plates (Falcon) with 20 ml complete RPMI-1640 containing 10 ng/ml GM-CSF (R&D Systems) and 10 ng/ml IL-4 (Invitrogen). Cells were washed and fed on day 3 and day 5 by removing the old medium followed by replenishing with fresh culture medium with GM-CSF and IL-4. On day 8, the immature DC appeared as non-adherent cells under the microscope and harvested by vigorous pipetting and subcultured into new culture plates with 2×10^5 DCs in 1.5 ml medium.
CD8(+) T-cells were negatively isolated using a CD8 selection Dynabeads kit (Invitrogen) per manufacturer's protocol. […] After co-culture for 4 hours, cells were collected and processed for flow cytometric determination of CD11c and 7-AAD by LSR II flow cytometer (BD Biosciences) and data was analyzed with Summit V4.3 software. Dendritic cell death without CD8(+) T-cells in the co-culture was used as baseline and percentage of specific lysis of cells was calculated using a method described previously, see reference (20). […]
Applicants therefore assessed the effect of the vaccine on cytotoxic activity of CD8^+ T cells against syngeneic bone marrow-derived DCs. […]

[7] = system: Granzyme B; assay: Granzyme B level in CD8(+) T-cells from immunized mice; assay type: cell-based; conditions: compared to PBS or cBSA/alum group
Procedure: as §1

[8] = system: Perforin; assay: Perforin level in CD8(+) T-cells from immunized mice; assay type: cell-based; conditions: compared to PBS or cBSA/alum group
Procedure: as §1

[9] = system: KLH; assay: KLH immunization after p210 immunization, KLH IgG titer; assay type: in vivo, Male C57/BL6 mice; conditions: prior p210 immunization vs PBS or cBSA/alum; 100 μg KLH s.c. at 13 and 15 weeks
From the text: (§3) The coating concentration was optimized in pilot experiments.

[10] = system: TNP; assay: TNP-LPS immunization after p210 immunization, TNP IgG titer; assay type: in vivo, Male C57/BL6 mice; conditions: prior p210 immunization vs PBS or cBSA/alum; 100 μg TNP-LPS i.p.
From the text: as §3

[11] = system: IFN-γ expression of dendritic cells (DCs); assay: Flow cytometric analysis of intracellular IFN-γ expression of dendritic cells (AngII model); assay type: in vivo, mice; conditions: ± SEM of CD11c-gated cells
[12] = system: AT1 receptor (AT1R); assay: Aortic AT1 receptor expression by Western blot (AngII model); assay type: in vivo, mice; conditions: ± SEM; N = 6
[13] = system: superoxide; assay: Aortic superoxide production by in situ dihydroethidine method (AngII model); assay type: in vivo, mice; conditions: ± SEM; N = 9
[14] = system: BMDCs; assay: Endocytosis of FITC-labeled p210 by DCs in vitro; assay type: cell-based, mice; conditions: p210 labeled with FITC; FITC fluorescence in BMDCs
Procedure: as §2
Peptide loading on BMDCs was defined using p210 labeled with FITC (FITC conjugating kit from Pierce).

[15] = system: CD8^+ CD25^− T cells; assay: Presentation of p210 by DCs to CD8+ CD25− T cells in vitro; assay type: cell-based, mice; conditions: 48 hours; DCs loaded with p210 and treated with LPS; compared to untreated or LPS only
From the text: The p210 peptide contains the proteoglycan binding site of the apoB-100 molecule. This peptide is a cell-penetrating peptide capable of efficiently delivering antigens for cross-presentation to cytotoxic CD8^+ T cells.^53 Applicants therefore assessed activation of CD8^+ CD25^− T cells co-cultured with DCs loaded with p210 and matured with LPS.

[16] = system: Male apoE KO mice; assay: AngII-induced aortic aneurysm formation, rupture and survival after immunization
Procedure: Fourteen P210, 17 cBSA, 16 PBS, and 8 Saline injected mice were examined.
AngII (1000 ng/Kg/min) was delivered by a subcutaneous osmotic pump implanted at 10 weeks of age for 4 weeks to cause aneurysms in all three groups. Saline was delivered to the control group. Mice were sacrificed at 14 weeks of age of age. The mice were fed normal chow for the duration of experiment.
42 P210, 46 cBSA, 37 PBS, and 8 Saline injected mice were examined.
AngII (1000 ng/Kg/min) was delivered by a subcutaneous osmotic pump implanted at 10 weeks of age for 4 weeks to cause aneurysms in all three groups. Saline was delivered to the control group. Mice were sacrificed at 14 weeks of age of age. The male apoE KO mice were fed normal chow for the duration of experiment.
AngII (1000 ng/Kg/min) was delivered by a subcutaneous osmotic pump implanted at 10 weeks of age for 4 weeks to cause aneurysms in all three groups. Saline was delivered to the control group. Mice were sacrificed at 14 weeks of age of age. 42 P210, 46 cBSA, 37 PBS, and 8 Saline injected mice were examined. Mice were sacrificed at 14 weeks of age. The male apoE KO mice were fed normal chow for the duration of experiment.
At 10 weeks of age, mice were subcutaneously implanted with an osmotic pump which released AngII (1 mg/Kg/min), and were euthanized 4 weeks later.

[17] = 100 μg s.c., three immunizations, high cholesterol chow, euthanasia at 25 weeks
[18] = AngII pump 4 weeks, total 14 p210, 17 cBSA

In the case of “EEEML ENVSL VCPKD ATRFK (EEEMLENVSLVCPKDATRFK) [p1]”, the “percentage reduction (atherosclerosis)” value [1] is listed as 31%.
In the case of “KTTKQ SFDLS VKAQY KKNKH (KTTKQSFDLSVKAQYKKNKH) [p210]”, the “reduction of aortic atherosclerosis compared to PBS group” value [2, 17] is reported as 57%, the “reduction of aortic atherosclerosis compared to cBSA/Alum group” value [2, 17] is reported as 50% and the “athero-reduction, dose comparison” value ([2]; pilot experiment, 100 μg dose compared to 25 or 50 μg dose) is reported as “optimum athero-reduction”. For the same substance, the “reduction in blood pressure” value ([3]; 4 weeks after pump implantation (FIG. 11)) was roughly 11%, the “change in heart rate” value ([3]; 4 weeks after pump implantation (FIG. 12A)) was roughly 7% and the “Mean Arterial Blood Pressure (BP)” value ([3]; ± SEM at 13 weeks of age, p210 N = 9, cBSA N = 7) was 124 ± 4 mmHg. For the same substance, the “CD11c(+)CD86(+) cells in lymph nodes” value [4] was “reduced CD11c(+)CD86(+) cells in lymph nodes”, the “atherosclerosis in recipients of B cells” value [5] was “did not affect atherosclerosis” and the “percent lysis relative to basal lysis, Normal medium” value ([6]; CD8:DC 3:1, 4 hours, 10% FBS, CD11c-gated cells, N = 11) was “significantly increased the percentage of DC death”. The “cytolytic activity of CD8+ T cells after depletion of CD25+ cells” value ([6]; FIG. 15, panel B) was “abrogated the increased cytolytic activity”, the “Granzyme B level in CD8(+) T-cells” value [7] was “higher level of Granzyme B” and the “perforin level in CD8(+) T-cells” value [8] was “no difference in perforin level”. For the same substance, the KLH-IgG titer [9] was “no difference”, the TNP-IgG titer [10] was “no difference” and the “LN CD11c+CD86+IFN-γ+ DCs” value ([11]; N = 6) was 26.7 ± 1.6 percentage. The “Spleen CD11c+CD86+IFN-γ+ DCs” value ([11]; N = 8) was 19.5 ± 1.6 percentage, the “Aortic AT1R” value [12] was 1.0 ± 0.2 arbitrary densitometric unit and the Aortic superoxide production [13] was 1.1 ± 0.1 arbitrary fluorescent intensity unit. The “uptake of FITC-labeled p210 by dendritic cells” value [14] was “uptake of p210 by dendritic cells”, the “CD8+ CD25+ T cells after co-culture with p210-loaded DCs” value [15] was “significantly increased CD8^+ CD25^+ T cells” and the “percentage reduction (atherosclerosis)” value [1] was 57.9%. For the same substance, the “Aneurysmal segment/total segment (%)” value ([16]; 8 aortic segments, AngII pump) was 14.3%, the “Survival at 28 days” value ([16]; 28 days after osmotic pump implantation for Ang II infusion, 42 P210, 46 cBSA mice) was 90.5% and the Aneurysm incidence ([16]; Ang II pump, 42 P210, 46 cBSA mice) was 54.8%. The “Aneurysm (include Rupture) (number of mice)” value [16, 18] was 8, the “Rupture (number of mice)” value [16, 18] was 1 and the “Rupture incidence (%, total)” value [16, 18] was 7.1%. The “alive (number of mice)” value [16, 18] was 13.
In the case of “IEIGL EGKGF EPTLE ALFGK (IEIGLEGKGFEPTLEALFGK) [p45]”, the “percentage reduction (atherosclerosis)” value [1] is listed as 47.4%.
In the case of “HTFLI YITEL LKKLQ STTVM (HTFLIYITELLKKLQSTTVM) [p301]”, the “percentage reduction (atherosclerosis)” value [1] is listed as 55.2%.
